Several values for one entry are separate records, joined by “and”; a condition that tells them apart may be missing. Identical values can stand only once. Toxic doses and inconclusive results are not listed. Rule as the data show it: active = T/C of 150% or more; inactive = T/C below 125%.
System: L1210 leukemia ip in BDF1 mice, survival T/C
Experiment: NCI In Vivo Anticancer Drug Screen. Data for tumor model L1210 Leukemia (intraperitoneal) in B6D2F1 (BDF1) mice
Conditions: endpoint: mean survival time, higher = longer survival
Summary of the method: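 Value reflects the ratio of survival in compound-treated mice to survival in vehicle-treated controls, with both groups carrying the same transplanted tumor.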

[1] = dose: 100.0 mg/kg/injection, schedule: Q01DX001 (ip), vehicle: saline with Tween-80
[2] = dose: 200.0 mg/kg/injection, schedule: Q01DX001 (ip), vehicle: saline with Tween-80
[3] = dose: 400.0 mg/kg/injection, schedule: Q01DX001 (ip), vehicle: saline with Tween-80
[4] = dose: 100.0 mg/kg/injection, schedule: Q01DX009 (ip), vehicle: Klucel (hydroxypropylcellulose) (HPC)
[5] = dose: 200.0 mg/kg/injection, schedule: Q01DX009 (ip), vehicle: Klucel (hydroxypropylcellulose) (HPC)
[6] = dose: 400.0 mg/kg/injection, schedule: Q01DX009 (ip), vehicle: Klucel (hydroxypropylcellulose) (HPC)
[7] = dose: 100.0 mg/kg/injection, schedule: Q04DX003 (ip), vehicle: saline
[8] = dose: 200.0 mg/kg/injection, schedule: Q04DX003 (ip), vehicle: saline
[9] = dose: 50.0 mg/kg/injection, schedule: Q01DX009 (ip), vehicle: Klucel (hydroxypropylcellulose) (HPC)
[10] = dose: 100.0 mg/kg/injection, schedule: Q04DX003 (ip), vehicle: saline with Tween-80
[11] = dose: 200.0 mg/kg/injection, schedule: Q04DX003 (ip), vehicle: saline with Tween-80
[12] = dose: 400.0 mg/kg/injection, schedule: Q04DX003 (ip), vehicle: saline with Tween-80
[13] = dose: 100.0 mg/kg/injection, schedule: Q01DX009 (ip), vehicle: saline with Tween-80
[14] = dose: 200.0 mg/kg/injection, schedule: Q01DX009 (ip), vehicle: saline with Tween-80
[15] = dose: 400.0 mg/kg/injection, schedule: Q01DX009 (ip), vehicle: saline with Tween-80
[16] = dose: 100.0 mg/kg/injection, schedule: Q01DX001 (ip), vehicle: carboxymethylcellulose (CMC)
[17] = dose: 200.0 mg/kg/injection, schedule: Q01DX001 (ip), vehicle: carboxymethylcellulose (CMC)
[18] = dose: 400.0 mg/kg/injection, schedule: Q01DX001 (ip), vehicle: carboxymethylcellulose (CMC)
[19] = dose: 100.0 mg/kg/injection, schedule: Q04DX003 (ip), vehicle: Klucel (hydroxypropylcellulose) (HPC)
[20] = dose: 200.0 mg/kg/injection, schedule: Q04DX003 (ip), vehicle: Klucel (hydroxypropylcellulose) (HPC)
[21] = dose: 400.0 mg/kg/injection, schedule: Q04DX003 (ip), vehicle: Klucel (hydroxypropylcellulose) (HPC)

Measured: T/C

Nc1ncnc(N)c1NC(=O)c1cccc(F)c1
inactive: [1] 106 % of control | [2] 101 % of control | [3] 102 % of control

CN(C)c1ccc(/C=N/NC(=S)Nc2ccccc2)cc1
inactive: [4] 109 % of control | [5] 98 % of control | [6] 94 % of control

O=C1CC(Nc2ccccc2)C(=O)N1c1cccc2ccccc12 (stereo not drawn)
inactive: [4] 102 % of control | [5] 96 % of control | [6] 91 % of control

O=C(OCCN1CCCCC1)C(O)C1CCCCC1 (stereo not drawn)
inactive: [7] 101 % of control | [8] 103 % of control

CC(=O)Oc1c(C)cc(O)c2ccccc12
inactive: [9] 96 % of control | [4] 111 % of control | [5] 100 % of control

C=C(C)C(=O)OCC1COc2c(cc(O)c(C)c2C)C1 (stereo not drawn)
inactive: [10] 107 % of control | [11] 98 % of control | [12] 98 % of control

O=C(O)C1C2CC(O)C(C2)C1C(=O)O (stereo not drawn)
inactive: [1] 94 % of control | [13] 93 % of control | dose: 100.0 mg/kg/injection, schedule: Q01DX009 (ip), vehicle: saline 105 % of control | [7] 94 % of control | [2] 98 % of control | [14] 95 % of control | dose: 200.0 mg/kg/injection, schedule: Q01DX009 (ip), vehicle: saline 105 % of control | [8] 96 % of control | [3] 100 % of control | [15] 96 % of control | dose: 400.0 mg/kg/injection, schedule: Q01DX009 (ip), vehicle: saline 98 % of control | dose: 400.0 mg/kg/injection, schedule: Q04DX003 (ip), vehicle: saline 93 % of control

CC/C(=C(/CC)c1ccc(OP(=O)(O)O)cc1)c1ccc(OP(=O)(O)O)cc1
inactive: [16] 108 % of control | dose: 100.0 mg/kg/injection, schedule: Q01DX001 (ip), vehicle: water 101 % of control | dose: 100.0 mg/kg/injection, schedule: Q04DX003 (sc), vehicle: olive oil, sesame oil, peanut oil 103 % of control | [17] 95 % of control | dose: 200.0 mg/kg/injection, schedule: Q01DX001 (ip), vehicle: water 97 % of control | dose: 200.0 mg/kg/injection, schedule: Q04DX003 (sc), vehicle: olive oil, sesame oil, peanut oil 102 % of control | [18] 106 % of control | dose: 400.0 mg/kg/injection, schedule: Q01DX001 (ip), vehicle: water 98 % of control | dose: 400.0 mg/kg/injection, schedule: Q04DX003 (sc), vehicle: olive oil, sesame oil, peanut oil 107 % of control

CCCCOC(=O)/C=C/C(=O)OCCCC
inactive: [13] 97 % of control | [14] 101 % of control | [15] 111 % of control

O=[N+]([O-])c1cc(Cl)cc2c1-c1c(Cl)cc(Cl)cc1/C2=N/O
inactive: dose: 25.0 mg/kg/injection, schedule: Q01DX009 (ip), vehicle: Klucel (hydroxypropylcellulose) (HPC) 106 % of control | [9] 94 % of control | [19] 101 % of control

CC(=O)Nc1ccc(Cl)nc1
inactive: [4] 98 % of control | [19] 94 % of control | [5] 92 % of control | [20] 101 % of control | [6] 93 % of control | [21] 91 % of control

CNC(=O)Oc1ccc2ccccc2c1
inactive: dose: 100.0 mg/kg/injection, schedule: Q01DX009 (ip), vehicle: other 101 % of control | dose: 200.0 mg/kg/injection, schedule: Q01DX009 (ip), vehicle: other 104 % of control | dose: 400.0 mg/kg/injection, schedule: Q01DX009 (ip), vehicle: other 93 % of control

CCOC(=O)c1cnc(SC)nc1Nc1ccccc1
inactive: [10] 94 % of control | [11] 100 % of control | [12] 86 % of control

COc1ccc(Br)cc1
inactive: [13] 96 % of control | [19] 100 % of control | [14] 89 % of control | [20] 100 % of control | [21] 103 % of control

CCCCCCCC(=O)Nc1ccccc1CC
inactive: [10] 93 % of control | [11] 95 % of control | [12] 86 % of control

COC(=O)C1=C(C(=O)OC)[C@H]2O[C@H]1[C@@H]1O[C@@H]12
inactive: dose: 6.25 mg/kg/injection, schedule: Q01DX009 (ip), vehicle: saline 104 % of control | dose: 12.5 mg/kg/injection, schedule: Q01DX001 (ip), vehicle: saline 99 % of control | dose: 12.5 mg/kg/injection, schedule: Q01DX009 (ip), vehicle: saline 100 % of control | dose: 25.0 mg/kg/injection, schedule: Q01DX001 (ip), vehicle: saline 100 % of control

CC(C)c1nc(CO)c(CO)n1Cc1ccccc1
inactive: [16] 106 % of control | dose: 100.0 mg/kg/injection, schedule: Q01DX009 (ip), vehicle: carboxymethylcellulose (CMC) 93 % of control and 109 % of control | dose: 100.0 mg/kg/injection, schedule: Q04DX002 (ip), vehicle: Klucel (hydroxypropylcellulose) (HPC) 112 % of control | dose: 100.0 mg/kg/injection, schedule: Q04DX002 (ip), vehicle: carboxymethylcellulose (CMC) 93 % of control and 111 % of control | [17] 108 % of control | dose: 200.0 mg/kg/injection, schedule: Q01DX009 (ip), vehicle: carboxymethylcellulose (CMC) 106 % of control and 91 % of control | dose: 200.0 mg/kg/injection, schedule: Q04DX002 (ip), vehicle: Klucel (hydroxypropylcellulose) (HPC) 102 % of control | dose: 200.0 mg/kg/injection, schedule: Q04DX002 (ip), vehicle: carboxymethylcellulose (CMC) 105 % of control and 88 % of control | [18] 108 % of control | dose: 400.0 mg/kg/injection, schedule: Q01DX009 (ip), vehicle: carboxymethylcellulose (CMC) 106 % of control and 91 % of control | dose: 400.0 mg/kg/injection, schedule: Q04DX002 (ip), vehicle: Klucel (hydroxypropylcellulose) (HPC) 102 % of control | dose: 400.0 mg/kg/injection, schedule: Q04DX002 (ip), vehicle: carboxymethylcellulose (CMC) 97 % of control and 90 % of control

O=C(COc1ccc(Cl)c(Cl)c1)Nc1ccc[n+](CC(=O)c2cccc(S(=O)(=O)F)c2)c1
inactive: dose: 25.0 mg/kg/injection, schedule: Q01DX001 (ip), vehicle: saline with Tween-80 96 % of control | dose: 50.0 mg/kg/injection, schedule: Q01DX001 (ip), vehicle: saline with Tween-80 98 % of control | [1] 107 % of control

CCC(=O)Oc1ccc(/C=N/NC(N)=S)nc1
inactive: dose: 100.0 mg/kg/injection, schedule: Q04DX002 (ip), vehicle: saline with Tween-80 113 % of control

CC(=O)c1cccc(NC(=O)Oc2ccc(Cl)cc2Cc2ccccc2)c1
inactive: [4] 101 % of control | [5] 101 % of control | [6] 95 % of control

Cc1ccc(C)c2c(CC(=O)O)c[nH]c12
inactive: [1] 100 % of control | [2] 107 % of control | [3] 102 % of control

O=C1CSCc2c1ccc1ccccc21
inactive: [10] 106 % of control | [11] 100 % of control | [12] 108 % of control
